Measurements from patent publication US11439685B2, “Formulations for treating a fibrotic disease” (TRUSTEES OF BOSTON UNIVERSITY, priority 2020, dated 2022).
Entries after “also recorded” stand apart in the source; their conditions may differ. Read-outs that look alike come from different tables or passages of the source.

Tests used:
[1] = regressed when marimastat was stopped; cited from earlier work
[2] = test system: glenohumeral joint in an animal model of shoulder contracture; test: Range of motion in rat shoulder contracture model; type: in vivo, rats
Description: The study was approved by the Institutional Animal Care and Use Committee, and 10 Sprague-Dawley rats (250-300 g, Charles River Laboratories, Wilmington, Mass., USA) were used in the study. For each animal, torque was measured per degree, on the intact left shoulder as a function of rotation angle between 80° of internal rotation (negative values by convention) and 60° of external rotation (positive values by convention) prior to any surgical intervention (baseline). […] Therefore, torque values at 60° external rotation (τOUT) and 800 of internal rotation (τINT) were recorded for each animal. The left forelimb of each animal was immobilized using extraarticular internal fixation. Under isoflurane anesthesia, a longitudinal skin incision was made perpendicular to the scapular spine. Two No. 2-0 braided polyester sutures (Ethibond Excel, Ethicon—San Lorenzo, PR, USA) were passed between the medial border of the scapula and the humeral shaft and tightened to immobilize the shoulder joint (FIG. 1, panel A). Muscular structures were not manipulated during surgery, and the animals were allowed normal activity in their cages immediately after the procedure. After 8 weeks of immobilization, the restraining sutures were removed, and the 10 animals were divided into two groups to evaluate changes in ROM (ROM group, n=5) and joint stiffness (stiffness group, n=5). In the ROM group, changes in kinematics were longitudinally quantified in the follow-up period by measuring the ROM achieved with the TOUT and TINT measured at baseline. This was conducted to evaluate whether immobilization mediated a significant reduction in ROM. In the stiffness group, joint kinetics were examined by measuring the differences in TOUT and TINT needed to achieve the original 800 of internal rotation and 60° of external rotation, respectively. […] The baseline measurements for each group were used as internal controls to reduce the total number of animals necessary for the study. […] ROM and torque measurements were performed under general anesthesia using a device that consisted of a sensor assembly, a rotating axle, and an arm clamp. The sensor assembly contained an orientation sensor (3DM-GX3-15, MicroStrain—Williston, Vt.), as well as a reaction torque sensor (TFF400, Futek—Irvine, Calif.) secured to the axle such that the sensing axis was collinear with the center of rotation. […] In the ROM group, pre-set programmable torque values, specific for each animal and measured at baseline (TOUT and TINT), were used as input variables in order to detect changes in rotation ROM with 0.2° resolution. […] For each animal, torque was measured per degree, on the intact left shoulder as a function of rotation angle between 1000 of internal rotation and 600 of external rotation prior to any surgical intervention. […]

[3] = test system: collagen I expression in human fibroblast-like synoviocytes (HFLS); test: Collagen I expression in synoviocytes treated with relaxin-2 microparticles in transwells; type: cell-based
Description: Human fibroblast-like synoviocytes (HFLS) treated with relaxin-2 microparticles in transwells allow for evaluation of the release and efficacy of released relaxin-2 at various time points. […] In the presence of relaxin-2, collagen I is expressed at 20 to 30% of the basal level at weeks 1, 3, and 4.

[4] = test system: collagen build-up in the lung induced by bleomycin; details: cited from earlier work
[5] = Circular dichroism spectroscopy of relaxin-2 fold and stability; type: physicochemical; details: for time relaxin-2 is stable: 37° C., no loss of alpha helical structure
Description: Relaxin-2 loaded PLGA microparticles (RMPs) were prepared based on the water/oil/water (w/o/w) method as described by Igartua, M., et. al., International Journal of Pharmaceutics, 1998, 169(1): 45-54 at 1.27×10-3 wt % loaded relaxin as determined by ELISA analysis. Significant optimization and tailoring of the method was required to obtain the particle. Amounts, time, temperature, mixing speed, polymer LA:GA content were all varied to identify a unique non-obvious set of conditions to prepare the polymer. […] Relaxin-2 in the relaxin-2 microparticles maintained its native secondary and tertiary structure through the w/o/w double-emulsion process. […] Additionally, relaxin-2 was stable at 37° C. over 2 months (FIG. 2, right). The relaxin-2 PLGA microparticles were prepared with batch-to-batch consistency and were resuspended in PEG-600 to reduce aggregation and flocculation, as well as to ease administration through a 23 G needle.
Two amphiphilic hydrogels were synthesized for the physical entrapment of relaxin-2 in order to control its sustained release (FIG. 6). These amphiphilic molecules melted at 95° C. and congealed when slowly cooled back to room temperature strictly from non-covalent interactions. The alkyl chain of 1 and alkyl fluoride chain of 2 allow for hydrophobic interactions between each molecule, while the trizol and thymidine moieties allow for pi-pi stacking. Lastly, the deoxyribose and glucose groups facilitate hydrogen bonding (Godeau, G., et al., Tetrahedron Letters 2010, 51: 1012-1015; Ramen, F. A. et al., Biomaterials. 2017, 145: 72-80). Together, these amphiphilic molecules create unique and stable supramolecular assemblies that are stable at 37° C. for at least two weeks. This stability feature is another novel finding and benefit to the use of the hydrogels. Three gels of each 1 and 2 were created with bovine serum albumin and relaxin-2 at different densities by dissolving each molecule in a solution of phosphate buffered saline with protein and heating to 95° C. for 30 minutes. […]

[6] = cited from earlier work
human fibroblasts = details: cited from earlier work
scleroderma = details: cited from earlier work
heart failure = details: 30 micrograms/kg/day for 2 days, intravenous infusion; cited from earlier work
[7] = test system: shoulder joint in an animal model of shoulder contracture; test: Histological analysis of the shoulder joint in rat contracture model; type: in vivo, rats; details: immobilized shoulders, FIG. 12
[8] = test system: cultured renal fibroblasts, epithelial cells and mesangial cells; details: TGF-β-induced; cited from earlier work

Row | Compound | adverse effect in patients [1] | internal ROM ([2]; intravenous injection at a much greater dose) | internal ROM ([2]; mIA relaxin-2 5 x 2 ug/kg every other day, or single intraarticular RMP approx. 10 ug/kg, follow-up 8 weeks) | internal ROM ([2]; mIA relaxin-2 5 x 2 ug/kg every other day, or single intraarticular RMP approx. 10 ug/kg, follow-up 8 weeks, listed as relaxin-2) | internal ROM ([2]; singular articular injection) | collagen I reduced to (densitometry) ([3]; after release of relaxin-2 from microparticles, FIG. 4 legend) | collagen I expression compared to untreated control ([3]; relaxin-2 released over four weeks, synoviocytes) | collagen build-up in the lung and overall fibrosis [4] | time relaxin-2 is stable [5] | time relaxin-2 is stable ([5]; listed as relaxin-2) | secondary/tertiary structure of relaxin-2 after w/o/w double emulsion process ([5]; circular dichroism, freshly prepared vs emulsified) | efficacy in animals ([6]; bolus dose) | efficacy in animals ([6]; sustained dose) | levels of collagen types I and III and fibronectin (human fibroblasts) | trial's primary endpoint of effectiveness (scleroderma; 25 micrograms/kg/day for 24 weeks, subcutaneous delivery) | adverse events (scleroderma; in vivo, sc) | trial's primary endpoint of effectiveness (heart failure) | histology: adhesions / hallmarks of arthrofibrosis [7] | fibronectin levels and degradation [8]
1 | CNC(=O)[C@@H](NC(=O)[C@H](CC(C)C)[C@H](O)C(=O)NO)C(C)(C)C [marimastat] | developed shoulder contractures | – | – | – | – | – | – | – | – | – | – | – | – | – | – | – | – | – | –
2 | Relaxin-2 | – | similarly constricted internal ROM compared with the untreated control group | significant increase back to healthy baseline by week 2 | restoration of internal ROM to baseline measurements | similarly constricted internal ROM compared with the untreated control group | approximately 50% | significant downregulation in collagen I expression | decreased collagen build-up | up to 2 months | 2 months | no change; also recorded: unaffected by the double emulsion process | not be effective | effective | reduction | did not meet the trial's primary endpoint of effectiveness | declines in creatine clearance and renal adverse events | did not meet the trial's primary endpoint of effectiveness | lacked any apparent adhesions | decreased TGF-β-induced fibronectin levels and increased fibronectin degradation
